Here are results for seven compounds from ChEMBL document CHEMBL1201862, “PubChem BioAssay data set” (2004).

Molecules are shown by their SMILES.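 Five concentrations, 48 hours, 96-well plates. At the GI50, growth is halved.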 Calls of active or inactive are those of the source. No stated cut-off is given here; in the data, active = GI50 up to about 1.1 µM and inactive = higher.

Test systems include A498; CCRF-CEM; HL-60; HOP-62; HOP-92; IGROV-1; MCF7; MOLT-4; NCI-H23; OVCAR-3; OVCAR-5; OVCAR-8; RXF 393; SK-MEL-28; SK-MEL-2; SNB-75; U-251; UACC-257; UACC-62; UO-31.
Holding throughout (experiment): growth of human tumour cells (NCI), 48 h

As to `Cc1ccc2nc3c(C(=O)NCCN(C)C)cccc3cc2c1`, the GI50 is 1.56 µM (inactive) in the test on A498; 1.55 µM (inactive) in the test with CCRF-CEM; 1.23 µM (inactive) in the test on HL-60; 2.85 µM (inactive) in the test on HOP-62; 1.75 µM (inactive) in the test with HOP-92; 2.23 µM (inactive) in the test with IGROV-1. Moreover, the GI50 is 2.81 µM (inactive) with MCF7; 0.49 µM (active) in the test with MOLT-4; 1.84 µM (inactive) in the test on NCI-H23; 2 µM (inactive) in the test on OVCAR-3; 2.1 µM (inactive) in the test on OVCAR-5; 1.5 µM (inactive) with OVCAR-8. The GI50 with RXF 393 was 2.02 µM (inactive); in the test with SK-MEL-28, 2.51 µM (inactive); with SK-MEL-2 it was 2.36 µM (inactive); with SNB-75 it was 2.99 µM (inactive); in the test with U-251, 3.26 µM (inactive); with UACC-257, 2.09 µM (inactive). In addition, the values for the GI50 in the test on UACC-62 and in the test on UO-31 were 2.35 µM (inactive) and 1.4 µM (inactive), respectively.
As to `CCOC(=O)N1CCN(c2ccc3c(C)cc(C)nc3n2)CC1`, the GI50 in the test with A498, in the test with CCRF-CEM, with HL-60, with HOP-62, in the test with HOP-92 and in the test with IGROV-1 was > 100 µM (inactive) in each case. The GI50 in the test on MCF7, in the test on MOLT-4, in the test on NCI-H23, in the test on OVCAR-3, in the test on OVCAR-5 and in the test with OVCAR-8 was > 100 µM (inactive) in each case. Besides, the GI50 with RXF 393, with SK-MEL-28, in the test on SK-MEL-2, with SNB-75, with U-251 and with UACC-257 was > 100 µM (inactive) in each case. Besides, the GI50 with UACC-62 and in the test on UO-31 was > 100 µM (inactive) each time.
For the compound `CC1OC1C(=O)C1(O)C(C)C(O)C23OC2(C(O)c2c(O)cccc2C3=O)C1O` (centres undefined) [CERVICARCIN], the GI50 with A498 is 0.352 µM (active); in the test on CCRF-CEM it was 0.044 µM (active); in the test on HL-60, 0.152 µM (active); with HOP-62, 0.0895 µM (active); in the test with HOP-92, 0.033 µM (active); in the test on IGROV-1, 0.219 µM (active). The GI50 in the test on MCF7 was 0.228 µM (active); in the test with MOLT-4, 0.0415 µM (active); in the test with NCI-H23, 0.0938 µM (active); in the test with OVCAR-3, 0.0638 µM (active); with OVCAR-5 it was 0.31 µM (active); in the test on OVCAR-8, 0.172 µM (active). Further, the GI50 with RXF 393 is 0.191 µM (active); in the test on SK-MEL-28 it was 0.182 µM (active); in the test with SK-MEL-2, 0.142 µM (active); in the test on SNB-75, 0.212 µM (active); in the test on U-251, 0.232 µM (active); in the test with UACC-257, 0.1 µM (active). Further, the GI50 in the test on UACC-62 was 0.245 µM (active); in the test with UO-31 it was 0.137 µM (active).
As for `COc1ccc2c3c1O[C@H]1C[C@@H](O)C=C[C@@]31CCN(C)C2` [GALANTAMINE], the GI50 in the test on A498 was > 150 µM (inactive); in the test with CCRF-CEM, > 150 µM (inactive); in the test on HL-60 it was 141 µM (inactive); in the test with HOP-62, > 150 µM (inactive); in the test on HOP-92, > 150 µM (inactive); with IGROV-1 it was > 150 µM (inactive). Also, the GI50 in the test on MCF7 was > 36 µM (inactive); with MOLT-4, > 150 µM (inactive); with NCI-H23, > 150 µM (inactive); with OVCAR-3, > 150 µM (inactive); in the test with OVCAR-5, > 150 µM (inactive); in the test with OVCAR-8, 23.8 µM (inactive). Besides, the GI50 in the test on RXF 393, in the test on SK-MEL-28, in the test on SK-MEL-2, in the test with SNB-75, in the test on U-251 and in the test on UACC-257 was > 150 µM (inactive) throughout. Also, the GI50 in the test with UACC-62 and with UO-31 was > 150 µM (inactive) in each case.
For the compound `O=c1cc[nH]c(=O)[nH]1` [URACIL], the GI50 in the test on A498 was 6.82 µM (inactive); with CCRF-CEM it was 318 µM (inactive); in the test with HL-60 it was 581 µM (inactive); in the test on HOP-62, 340 µM (inactive); in the test with HOP-92 it was 311 µM (inactive); in the test with IGROV-1, > 828 µM (inactive). Moreover, the GI50 in the test with MCF7 is 398 µM (inactive); with MOLT-4, 550 µM (inactive); in the test on NCI-H23, 147 µM (inactive); in the test with OVCAR-3, 667 µM (inactive); in the test on OVCAR-5, > 746 µM (inactive); in the test with OVCAR-8, 527 µM (inactive). Besides, the GI50 with RXF 393 is 316 µM (inactive); with SK-MEL-28, 327 µM (inactive); with SK-MEL-2 it was 393 µM (inactive); in the test with SNB-75, 350 µM (inactive); with U-251, 370 µM (inactive); in the test with UACC-257, 804 µM (inactive). Moreover, the GI50 is 330 µM (inactive) with UACC-62 and 1000 µM (inactive) in the test with UO-31.
As to `CC(C)C(/C=C/c1ccc(Cl)cc1)=N\NC(=O)N/N=C(/C=C/c1ccc(Cl)cc1)C(C)C`, the GI50 with A498 was 18.1 µM (inactive); in the test with CCRF-CEM, 46.5 µM (inactive); with HL-60, > 100 µM (inactive); in the test on HOP-62, 27.9 µM (inactive); in the test on HOP-92 it was 21.7 µM (inactive); in the test with IGROV-1, 28.8 µM (inactive). The GI50 is > 100 µM (inactive) in the test with MCF7; 48.8 µM (inactive) in the test with MOLT-4; 21.9 µM (inactive) in the test on NCI-H23; 19.6 µM (inactive) in the test on OVCAR-3; > 100 µM (inactive) in the test with OVCAR-5; 19.4 µM (inactive) with OVCAR-8. The GI50 is 20.7 µM (inactive) in the test with RXF 393; 50.9 µM (inactive) in the test with SK-MEL-28; 26.4 µM (inactive) in the test on SK-MEL-2; 21.7 µM (inactive) in the test with SNB-75; 16.9 µM (inactive) in the test with U-251; 57.5 µM (inactive) in the test on UACC-257. For the same compound, the GI50 in the test with UACC-62 is 35.5 µM (inactive); with UO-31 it was 40.9 µM (inactive).
Consider `COc1cc2c(cc1OC)C(=O)/C(=C/c1cc(OC)c(OC)c(OC)c1)C2`, for which the GI50 with A498 was > 100 µM (inactive); in the test on CCRF-CEM, > 100 µM (inactive); with HL-60, > 100 µM (inactive); in the test with HOP-62 it was 43.6 µM (inactive); in the test on HOP-92 it was > 100 µM (inactive); with IGROV-1 it was > 100 µM (inactive). Moreover, the GI50 with MCF7, in the test on MOLT-4, with NCI-H23, in the test with OVCAR-3, with OVCAR-5 and in the test with OVCAR-8 was > 100 µM (inactive) throughout. Also, the GI50 with RXF 393, in the test on SK-MEL-28, in the test on SK-MEL-2, in the test with SNB-75, in the test with U-251 and in the test with UACC-62 was > 100 µM (inactive) throughout. In the test with UO-31, the GI50 was > 100 µM (inactive).
